Laboratory results from patent US8703483B2, “Reagents and methods for using human embryonic stem cells to evaluate toxicity of pharmaceutical compounds and other chemicals” (Wisconsin Alumni Research Foundation, priority 2006, dated 2014).

Tests used:
[1] = supplementation prior to pregnancy; cited from earlier work
[2] = system: human embryonic stem cells; experiment: Metabolite profiling (LC/ESI-TOF mass spectrometry) of extracellular media of hESCs treated with alcohol; assay type: cell-based; conditions: for Putative kynurenine (exact neutral mass 208.0816) upregulation: day four
Excerpt: Binned masses were annotated in silico by querying the neutral masses in several different databases. These databases included Metlin, Biological Magnetic Resonance Data Bank (BMRB), NIST Chemistry WebBook, and the Human Metabolome Database. A mass was considered identified when its neutral mass was within 10 ppm of a known compound annotated in one of the databases listed above.

[3] = system: H1/NIH code WA01 hES cells; experiment: Quantitative real-time PCR of epigenetic regulators and developmental genes in VPA-treated hESCs; assay type: cell-based, human; conditions: 1 mM VPA treated
Protocol: Treated and control H1/NIH code WA01 hES cells (passage 41) were analyzed by real-time PCR, and each treatment group was paired with a corresponding control group that received the standard growth media combination of CM+bFGF without VPA. In these studies, total cellular RNA was extracted from cells harvested at 24 hours (24 H), 4 days (4 D) and 8 days (EC) using the RNA Easy Kit (Qiagen, Valencia, Calif.) according to the manufacturer's instructions.
Expression levels of candidate test genes and a housekeeping gene (Beta-2-microglobulin) were evaluated by quantitative real-time PCR using a DNA Engine-Opticon 2 Detection System (MJ Research, Watertown, Mass.). The housekeeping gene acts as an internal control for normalization of RNA levels. The primers used for real-time PCR reactions were designed using Beacon Designer software (Premier Biosoft International, Palo Alto, Calif.). RNA was reverse transcribed using iScript cDNA Synthesis kit (Bio-Rad, Hercules, Calif.), wherein each cDNA synthesis reaction (20 μL) included 4 μL of 5× iScript reaction mix, 1 μL of iScript reverse transcriptase, and 2 μL of RNA. PCR was performed on cDNA in PCR reaction mixtures (25 μL) each containing 12.5 μL of Supermix (contains dNTPs, Taq DNA polymerase, SYBR Green I, and fluorescein), 250 nM forward primer, 250 nM reverse primer, and 1.6 μL RT-PCR products. Melting curve analysis and agarose gel electrophoresis were performed after real-time PCR reaction to monitor PCR specificity, wherein PCR products were detected with SYBR Green I using the iQ SYBR Green Supermix kit (Bio-Rad).
Quantifying the relative expression of real-time PCR was performed using the 2-ΔΔCt method (Livak & Schmittgen, 2001, Methods 25:402-8), and a general linear model was employed to fit the expression data. The PROC GLM procedure in SAS (version 8.2; SAS Institute, Cary, N.C.) was used to estimate least squares means in expression between treated and untreated hESCs and P<0.05 was considered statistically significant
Real-time PCR was conducted on samples from 24 hours (24 H), 4 days (4 D) and 8 days (EC) after VPA treatment to investigate expression levels of epigenetic regulators (such as DNA methyltransferase-1, DNMT-1, BMI-1, EED) and critical transcription factors responsible for embryonic patterning and neurodevelopment (RUNX2, BMP7, FGF8, CBX2, GLI3, SSH and SP8) in human embryonic stem cells.

[4] = system: undifferentiated human embryonic stem cells (H1 and H9 hESC); experiment: Metabolite profiling (LC/ESI-TOF-MS) of supernatant of hESCs treated with valproate; assay type: cell-based
Protocol: Masses were binned together if they were within 10 ppm and eluted within a 2 minutes retention time window. […] Binning of the data is required for statistical analysis and comparison of masses across the entire experiment. If multiple peaks with the same mass at the same retention time within a single sample were detected by Mass Hunter, they were averaged to assist data analysis.
As used herein, a mass was considered to be the same across LC/ESI-TOF-MS runs using a simple algorithm that first sorts the data by mass and retention time. […] If a series of measurements fit this definition it was considered to be from the same compound. If either the mass or the retention time varied by more than the limits listed above it was considered to be a different compound and given a new unique designation.

[5] = system: neuronal precursors derived from hESCs; experiment: Metabolite profiling of neural precursors derived from hESCs treated with valproate; assay type: cell-based, human; conditions: 1 mM valproate
Excerpt: Metabolomic assessment of teratogens on embryonic development is not limited exclusively to hESCs.

[6] = system: human embryonic stem cells; experiment: Viability and pluripotency (Oct-4, morphology) of hESCs after valproate exposure; assay type: cell-based; conditions: hESCs remained viable for multiple passages following exposure
[7] = 0.3% alcohol, four days, p<0.05

Nc1nc2ncc(CNc3ccc(C(=O)N[C@@H](CCC(=O)O)C(=O)O)cc3)nc2c(=O)[nH]1 [Folic acid]
Reduction of the incidence of spina bifida [1]: 70%

CCO [ethanol, reference compound]
8-methoxykynurenate (219.0532) change ([2]; 0.1% alcohol, four days, p<0.05): upregulated | Putative kynurenine (exact neutral mass 208.0816) upregulation ([2]; 0.1% treatment, p=0.001): three-fold | Compounds significantly different (p<0.05) in at least one treatment ([2]; 0.1 and 0.3% ethanol, of 49,481 mass signals): 1,860 compounds | 5-hydroxy-L-tryptophan (220.0848) change in comparison to untreated controls [2, 7]: significant downregulation | 8-methoxykynurenate (219.0532) change [2, 7]: upregulated | Putative kynurenine (exact neutral mass 208.0816) upregulation ([2]; 0.3% treatment, p=0.002): three-fold

CCCC(CCC)C(=O)O [valproate]
BMI-1 gene expression level (target gene/Beta-2-Microglobulin) ([3]; 4 D): 0.112 | BMP7 gene expression level (target gene/Beta-2-Microglobulin) ([3]; 4 D): 0.342 | CBX2 gene expression level (target gene/Beta-2-Microglobulin) ([3]; 4 D): 1.1881 | DNMT1 gene expression level (target gene/Beta-2-Microglobulin) ([3]; 4 D): 0.002 | EED gene expression level (target gene/Beta-2-Microglobulin) ([3]; 4 D): 0.185 | GLI3 gene expression level (target gene/Beta-2-Microglobulin) ([3]; 4 D): 0.774 | H19 gene expression level (target gene/Beta-2-Microglobulin) ([3]; 4 D): 0.846 | RUNX2 gene expression level (target gene/Beta-2-Microglobulin) ([3]; 4 D): 4.020 | SP8 gene expression level (target gene/Beta-2-Microglobulin) ([3]; 4 D): 1.703 | Shh gene expression level (target gene/Beta-2-Microglobulin) ([3]; 4 D): 0.533 | BMI-1 gene expression level (target gene/Beta-2-Microglobulin) ([3]; 24 H): 0.252 | BMP7 gene expression level (target gene/Beta-2-Microglobulin) ([3]; 24 H): 0.093 | CBX2 gene expression level (target gene/Beta-2-Microglobulin) ([3]; 24 H): 0.245 | DNMT1 gene expression level (target gene/Beta-2-Microglobulin) ([3]; 24 H): 0.624 | EED gene expression level (target gene/Beta-2-Microglobulin) ([3]; 24 H): 0.342 | FGF8 gene expression level (target gene/Beta-2-Microglobulin) ([3]; 24 H): 0.801 | GLI3 gene expression level (target gene/Beta-2-Microglobulin) ([3]; 24 H): 0.015 | H19 gene expression level (target gene/Beta-2-Microglobulin) ([3]; 24 H): 0.006 | RUNX2 gene expression level (target gene/Beta-2-Microglobulin) ([3]; 24 H): 1.769 | SP8 gene expression level (target gene/Beta-2-Microglobulin) ([3]; 24 H): 0.235 | Shh gene expression level (target gene/Beta-2-Microglobulin) ([3]; 24 H): 0.562 | BMI-1 gene expression level (target gene/Beta-2-Microglobulin) ([3]; EC (8 days)): 1.071 | BMP7 gene expression level (target gene/Beta-2-Microglobulin) ([3]; EC (8 days)): 1.664 | CBX2 gene expression level (target gene/Beta-2-Microglobulin) ([3]; EC (8 days)): 1.946 | DNMT1 gene expression level (target gene/Beta-2-Microglobulin) ([3]; EC (8 days)): 1.124 | EED gene expression level (target gene/Beta-2-Microglobulin) ([3]; EC (8 days)): 1.769 | FGF8 gene expression level (target gene/Beta-2-Microglobulin) ([3]; EC (8 days)): 0.837 | GLI3 gene expression level (target gene/Beta-2-Microglobulin) ([3]; EC (8 days)): 1.918 | H19 gene expression level (target gene/Beta-2-Microglobulin) ([3]; EC (8 days)): 2.756 | RUNX2 gene expression level (target gene/Beta-2-Microglobulin) ([3]; EC (8 days)): 2.434 | SP8 gene expression level (target gene/Beta-2-Microglobulin) ([3]; EC (8 days)): 5.808 | Compounds with statistically-significant differences in at least one time point ([4]; 22 μM valproate, of 3,241 mass signals (3%)): 110 compounds | Small molecules absent in treated groups ([4]; VPA, 24 hours, vs untreated controls): approximately 40 | Compounds differentially secreted in treated neuronal precursors versus control [5]: Approximately 135 compounds | Effect of treatment on hESC viability [6]: not detrimental
